Test results reported in ChEMBL document CHEMBL1139381 (J Med Chem, 2009).

Tests used:
Plasmodium falciparum [1] = test: Antimalarial activity after 72 hrs against chloroquine-sensitive Plasmodium falciparum D10 infected human A+ erythrocytes in Makler LDH reporter assay; assay type: functional, organism-based; details: D10, 72 h
Plasmodium falciparum [2] = test: Antimalarial activity after 72 hrs against chloroquine-resistant Plasmodium falciparum W2 infected human A+ erythrocytes by Makler LDH reporter assay; assay type: functional, organism-based; details: W2, 72 h
Plasmodium falciparum [3] = test: Antimalarial activity after 24 hrs against chloroquine-resistant synchronous Plasmodium falciparum K1 infected human A+ erythrocytes by [3H]hypoxanthine uptake; assay type: functional, organism-based
Plasmodium falciparum [4] = test: Antimalarial activity after 24 hrs against chloroquine-sensitive Plasmodium falciparum 3D7 infected human A+ erythrocytes by [3H]hypoxanthine uptake; assay type: functional, organism-based
Plasmodium chabaudi [5] = test: Antimalarial activity as reduced parasitaemia against Plasmodium chabaudi AS infected CD1 mice (Mus musculus) at 50 mg/kg/day peroral dose; assay type: functional; set-up: scale not given: the % may be the effect or the level left; details: route oral
Plasmodium berghei [6] = test: Antimalarial activity as reduced parasitaemia against Plasmodium berghei ANKA infected CD1 mice (Mus musculus) at 30 mg/kg/day intraperitoneal dose over 4 days; assay type: functional; set-up: scale not given: the % may be the effect or the level left
[7] = target: T1, Histidine-rich protein PFHRP-II (Plasmodium falciparum) (UniProt P05227); test: Inhibition of beta-hematin assessed as molar equivalents at pH 2.7 after 18 hrs by spectrophotometric microassay relative to hemin; assay type: functional
T1 sequence (whole entry): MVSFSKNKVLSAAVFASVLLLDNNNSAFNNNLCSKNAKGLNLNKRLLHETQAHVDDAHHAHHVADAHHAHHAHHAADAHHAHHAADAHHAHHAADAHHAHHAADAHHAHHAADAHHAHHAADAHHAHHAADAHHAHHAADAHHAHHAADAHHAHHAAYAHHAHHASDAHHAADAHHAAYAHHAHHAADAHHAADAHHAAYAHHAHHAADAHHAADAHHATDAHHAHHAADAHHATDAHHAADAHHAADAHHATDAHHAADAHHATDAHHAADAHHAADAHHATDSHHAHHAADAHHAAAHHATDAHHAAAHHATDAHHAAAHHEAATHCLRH

Plasmodium falciparum [8] = test: Antimalarial activity after 48 hrs against chloroquine-resistant asynchronous Plasmodium falciparum K1 infected human A+ erythrocytes by [3H]hypoxanthine uptake; assay type: functional, organism-based
Plasmodium falciparum [9] = test: Antimalarial activity after 48 hrs against chloroquine-sensitive Plasmodium falciparum NF54 infected human A+ erythrocytes by [3H]hypoxanthine uptake; assay type: functional, organism-based
[10] = Cytotoxicity against mouse NSO cells by MTT assay; assay type: cell-based; details: read-out: TC50 (the source's name)
[11] = Cytotoxicity against human Daudi cells by MTT assay; assay type: cell-based; details: read-out: TC50 (the source's name)
[12] = Cytotoxicity against PHA-stimulated human lymphocytes by MTT assay; assay type: cell-based, Lymphocyte; details: read-out: TC50 (the source's name)
[13] = Elimination half life in CD-COBS rat at 5 mg/kg, iv; assay type: ADME, organism-based; set-up: dose 5 mg/kg, route intravenous; details: in vivo
[14] = Cytotoxicity against human KB cells by MTT assay; assay type: cell-based; details: read-out: TC50 (the source's name)
[15] = Apparent volume of distribution in CD-COBS rat at 5 mg/kg, iv; assay type: ADME, organism-based; set-up: dose 5 mg/kg, route intravenous; details: in vivo
Mus musculus = test: AUC (0 to t) in CD1 albino mouse at 50 mg/kg, po after 60 mins; assay type: ADME, organism-based, Plasma; set-up: time < 1 hr, dose 50 mg/kg, route oral; details: in vivo, 1 h
[16] = Cmax in CD-COBS rat at 50 mg/kg, po after 60 mins; assay type: ADME, organism-based; set-up: time < 1 hr, dose 50 mg/kg, route oral; details: in vivo, read-out: AUC
[17] = Ratio of drug level in liver to plasma of CD1 albino mouse at 50 mg/kg, po after 180 mins; assay type: ADME, organism-based; set-up: dose 50 mg/kg, route oral; details: liver and plasma
Plasmodium berghei [18] = test: Antimalarial activity as reduced parasitaemia against Plasmodium berghei ANKA infected CD1 mice (Mus musculus) at 50 mg/kg/day peroral dose over 4 days; assay type: functional; set-up: scale not given: the % may be the effect or the level left; details: route oral
[19] = Ratio of drug level in liver to plasma of CD-COBS rat at 50 mg/kg, po after 180 mins; assay type: ADME, organism-based; set-up: dose 50 mg/kg, route oral; details: liver and plasma
[20] = Liver concentration in CD-COBS rat at 50 mg/kg, po after 180 mins
[21] = Cmax in CD1 albino mouse at 50 mg/kg, po after 60 mins; assay type: ADME, organism-based; set-up: dose 50 mg/kg, route oral; details: in vivo
Plasmodium berghei [22] = test: Antimalarial activity as increased survival against Plasmodium berghei ANKA infected CD1 mice (Mus musculus) at 50 mg/kg/day peroral dose over 4 days; assay type: functional; details: route oral
Rattus norvegicus = test: AUC (0 to t) in CD-COBS rat at 50 mg/kg, po after 60 mins; assay type: ADME, organism-based, Plasma; set-up: time < 1 hr, dose 50 mg/kg, route oral; details: in vivo, 1 h
[23] = Ratio of drug level in blood to plasma of CD-COBS rat at 5 mg/kg, iv; assay type: ADME, organism-based; set-up: dose 5 mg/kg, route intravenous; details: blood and plasma
[24] = Liver concentration in CD1 albino mouse at 50 mg/kg, po after 180 mins
Liver [25] = test: AUC (0 to t) in CD-COBS rat liver at 50 mg/kg, po after 180 mins; assay type: ADME, organism-based; set-up: time < 3 hr, dose 50 mg/kg, route oral; details: in vivo, 3 h
Liver [26] = test: AUC (0 to t) in CD1 albino mouse liver at 50 mg/kg, po after 180 mins; assay type: ADME, organism-based; set-up: time < 3 hr, dose 50 mg/kg, route oral; details: in vivo, 3 h
Plasmodium berghei [27] = test: Antimalarial activity as increased survival against Plasmodium berghei ANKA infected CD1 mice (Mus musculus) at 10 mg/kg/day peroral dose over 4 days; assay type: functional; details: route oral
Plasmodium chabaudi [28] = test: Antimalarial activity as reduced parasitaemia against Plasmodium chabaudi AS infected CD1 mice (Mus musculus) at 10 mg/kg/day peroral dose over 4 days; assay type: functional; set-up: scale not given: the % may be the effect or the level left; details: route oral
Plasmodium berghei [29] = test: Antimalarial activity as reduced parasitaemia against Plasmodium berghei ANKA infected CD1 mice (Mus musculus) at 150 mg/kg/day oral dose over 4 days; set-up: scale not given: the % may be the effect or the level left

SMILES | IC50 (Plasmodium falciparum [1]) [nM] | IC50 (Plasmodium falciparum [2]) [nM] | IC50 (Plasmodium falciparum [3]) [nM] | IC50 (Plasmodium falciparum [4]) [nM] | Activity (Plasmodium chabaudi [5]) [%] | IC50 (Plasmodium falciparum [8]) [nM] | IC50 (Plasmodium falciparum [9]) [nM] | other results
Clc1ccc([C@](c2ccccc2)(c2ccc(CN3CCCC3)cc2)n2ccnc2)cc1 | 130 | 59 | 5 | 7 | 94.8 | – | – | Activity (Plasmodium berghei [6]): 37.6%; Ratio [7]: 2.5
COc1ccc2nc3cc(Cl)ccc3c(NC(c3ccc(Cl)cc3)(c3ccc(Cl)cc3)c3ccc(CN4CCCC4)cc3)c2c1 | 143 | 149 | – | – | – | 199 | 135 | –
Clc1ccc(C(Nc2ccnc3cc(Cl)ccc23)(c2ccc(Cl)cc2)c2ccc(CN3CCCC3)cc2)cc1 | 48 | 56 | – | – | – | 28 | 16 | –
COc1ccc2nccc(NC(c3ccc(CN4CCCC4)cc3)c3cccc(Cl)c3)c2c1 (racemic) | 40 | 55 | – | – | – | 65 | 39 | –
Clc1cccc(C(Nc2ccnc3cc(Cl)ccc23)c2ccc(CN3CCOCC3)cc2)c1 (racemic) | 142 | 220 | – | – | – | 62 | 43 | –
COc1ccc2nccc(NC(c3ccc(CN4CCOCC4)cc3)c3cccc(Cl)c3)c2c1 (racemic) | 86 | 127 | – | – | – | 67 | 43 | –
COc1ccc2nc3cc(Cl)ccc3c(NC(c3ccc(Cl)cc3)c3ccc(CN4CCCC4)cc3)c2c1 (racemic) | 49 | 59 | 8 | 1 | 99.9 | 20 | 19 | CC50 [10]: 11100 nM; CC50 [11]: 11100 nM; CC50 [12]: 16600 nM
Clc1ccc(C(Nc2ccnc3cc(Cl)ccc23)c2ccc(CN3CCOCC3)cc2)cc1 (racemic) | 87 | 84 | – | – | – | 21 | 19 | –
Clc1ccc(C(Nc2ccnc3cc(Cl)ccc23)c2ccc(CN3CCCC3)cc2)cc1 (racemic) | 46 | 72 | 9 | 3.7 | 99.5 | 14 | 13 | half-life [13]: 0.733 h; CC50 [14]: 19600 nM; CC50 [10]: 8600 nM; CC50 [11]: 8600 nM; Vd [15]: 40 L/kg; CC50 [12]: 17300 nM
COc1ccc2nccc(NC(c3ccc(Cl)cc3)c3ccc(CN4CCCC4)cc3)c2c1 (racemic) | 57 | 82 | 60 | 8 | – | 32 | 32 | CC50 [14]: 8500 nM
COc1ccc2nccc(NC(c3ccc(Cl)cc3)c3ccc(CN4CCOCC4)cc3)c2c1 (racemic) | 67 | 65 | – | – | – | 54 | 33 | –
FC(F)(F)c1cc(NC(c2ccc(Cl)cc2)c2ccc(CN3CCCC3)cc2)c2cccc(C(F)(F)F)c2n1 (racemic) | 1240 | 1370 | 450 | 100 | – | – | – | CC50 [14]: 213000 nM
Clc1ccc(C(Nc2ccnc3cc(Cl)ccc23)(c2ccccc2)c2ccc(CN3CCCC3)cc2)cc1 (racemic) | 40 | 51 | 22 | 3 | 99.9 | – | – | –
FC(F)(F)c1ccc2c(NC(c3ccc(Cl)cc3)c3ccc(CN4CCCC4)cc3)ccnc2c1 (racemic) | 61 | 90 | 30 | – | 99.6 | 20 | 33 | CC50 [14]: 5500 nM; CC50 [10]: 12100 nM; CC50 [11]: 14100 nM; CC50 [12]: 24200 nM
Clc1cccc(C(Nc2ccnc3cc(Cl)ccc23)c2ccc(CN3CCCC3)cc2)c1 (racemic) | 21 | 22 | 65 | 24 | 98 | 16 | 12 | half-life [13]: 3 h; AUC (Mus musculus): 725 ng·h/mL; Cmax [16]: 180 ng/mL; Kp at 3 h [17]: > 100; CC50 [10]: 23800 nM; Activity (Plasmodium berghei [18]): 98%; Kp at 3 h [19]: > 100; concentration at 3 h [20]: 30500 ng/g; Cmax [21]: 330 ng/mL; CC50 [11]: 34600 nM; Survival (Plasmodium berghei [22]): 18 days; AUC (Rattus norvegicus): 422 ng·h/mL; Vd [15]: 48 L/kg; Ratio [7]: 1.33; blood plasma ratio [23]: 1.1; concentration at 3 h [24]: 52200 ng/g; CC50 [12]: 54100 nM; AUC (Liver [25]): 2945 µg/g; AUC (Liver [26]): 7061 µg/g
FC(F)(F)c1ccc2c(NC(c3ccc(CN4CCOCC4)cc3)c3cccc(Cl)c3)ccnc2c1 (racemic) | 234 | 304 | – | – | – | – | – | –
CCN(CC)CCCC(C)Nc1ccnc2cc(Cl)ccc12 (stereo not given) [CHLOROQUINE] | – | – | – | – | – | – | – | CC50 [10]: 14900 nM; CC50 [11]: 16700 nM; Survival (Plasmodium berghei [27]): 16.3 days; CC50 [12]: 18600 nM; Activity (Plasmodium chabaudi [28]): 99.9%
Clc1ccccc1C(c1ccccc1)(c1ccccc1)n1ccnc1 [CLOTRIMAZOLE] | – | – | – | – | 6 | – | – | Activity (Plasmodium berghei [29]): 28.3%
